Format in all cases: in vivo
One test relates to Zymoseptoria tritici. Put plainly: Fungicidal activity: leaf blotch of wheat (SEPTTR), disease control on wheat seedlings. Conditions: for pest or weed control at 100 ppm / pest or weed control at 121.5 g/ha: Zymoseptoria tritici. Here is the method:
Technical grades of materials were dissolved in acetone, which were then mixed with nine volumes of water containing 110 ppm Triton X-100. The fungicide solutions were applied onto wheat seedlings using an automated booth sprayer to run-off. All sprayed plants were allowed to air dry prior to further handling. All fungicides were evaluated using the aforementioned method for their activity vs. all target diseases, unless stated otherwise. Wheat leaf blotch and brown rust activity were also evaluated using track spray applications, in which case the fungicides were formulated as EC formulations, containing 0.1% Trycol 5941 in the spray solutions. Wheat plants (variety Yuma) were grown from seed in a greenhouse in 50% mineral soil/50% soil-less Metro mix until the first leaf was fully emerged, with 7-10 seedlings per pot. These plants were inoculated with an aqueous spore suspension of Zymoseptoria tritici either prior to or after fungicide treatments. After inoculation the plants were kept in 100% relative humidity (one day in a dark dew chamber followed by two to three days in a lighted dew chamber at 20° C.) to permit spores to germinate and infect the leaf. The plants were then transferred to a greenhouse set at 20° C. for disease to develop. When disease symptoms were fully expressed on the 1st leaves of untreated plants, infection levels were assessed on a scale of 0 to 100 percent disease severity. Percent disease control was calculated using the ratio of disease severity on treated plants relative to untreated plants.

The next test has as its system Puccinia triticina. The experiment in a line: Fungicidal activity: wheat brown rust (PUCCRT), disease control on wheat seedlings. Here is the method:
Technical grades of materials were dissolved in acetone, which were then mixed with nine volumes of water containing 110 ppm Triton X-100. The fungicide solutions were applied onto wheat seedlings using an automated booth sprayer to run-off. All sprayed plants were allowed to air dry prior to further handling. All fungicides were evaluated using the aforementioned method for their activity vs. all target diseases, unless stated otherwise. Wheat leaf blotch and brown rust activity were also evaluated using track spray applications, in which case the fungicides were formulated as EC formulations, containing 0.1% Trycol 5941 in the spray solutions. Wheat plants (variety Yuma) were grown from seed in a greenhouse in 50% mineral soil/50% soil-less Metro mix until the first leaf was fully emerged, with 7-10 seedlings per pot. These plants were inoculated with an aqueous spore suspension of Puccinia triticina either prior to or after fungicide treatments. After inoculation the plants were kept in a dark dew room at 22° C. with 100% relative humidity overnight to permit spores to germinate and infect the leaf. The plants were then transferred to a greenhouse set at 24° C. for disease to develop. Fungicide formulation, application and disease assessment followed the procedures as described in the Example A. Results of the evaluations are shown below in Table 4.

The test system of the next test is Phakopsora pachyrhizi. Put plainly: Fungicidal activity: Asian soybean rust (PHAKPA), disease control on soybean seedlings. Conditions: High Volume at 25 ppm. On the procedure: Technical grades of materials were dissolved in acetone, which were then mixed with nine volumes of water containing 0.011% Tween 20. The fungicide solutions were applied onto soybean seedlings using an automated booth sprayer to run-off. All sprayed plants were allowed to air dry prior to further handling.
Soybean plants (variety Williams 82) were grown in soil-less Metro mix, with one plant per pot. Two weeks old seedlings were used for testing. Plants were inoculated either 3 days prior to or 1 day after fungicide treatments. Plants were incubated for 24 h in a dark dew room at 22° C. and 100% relative humidity then transferred to a growth room at 23° C. for disease to develop. Disease severity was assessed on the sprayed leaves.

The mark [1] stands for this setting: HV activity at 100 ppm, 3 Day Curative.
Setting [2] is: HV activity at 100 ppm, 1 Day Protectant.
[3] abbreviates: 24 h, LV activity at 121.5 g/H, 1 Day Protectant, read-out: SEPTTR 1DP disease control rating.
[4] abbreviates: 72 h, LV activity at 121.5 g/H, 3 Day Curative, read-out: SEPTTR 3DC disease control rating.
[5] abbreviates: Puccinia triticina, 24 h, LV activity at 121.5 g/H, 1 Day Protectant, read-out: PUCCRT 1DP disease control rating.
The mark [6] stands for this setting: 24 h, 1 Day Protectant, read-out: PHAKPA 1DP disease control rating.
[7] abbreviates: 72 h, 3 Day Curative, read-out: PHAKPA 3DC disease control rating.
Where [8] appears, read: Puccinia triticina, 72 h, LV activity at 121.5 g/H, 3 Day Curative, read-out: PUCCRT 3DC disease control rating.
The mark [9] stands for this setting: LV activity at 121.5 g/H, 3 Day Curative.

Structures are written as SMILES. Where two headings read alike, the source gives them in different places.

As to `COc1cc(F)ccc1[C@@H](Sc1ccccc1)[C@H](C)OC(=O)[C@H](C)NC(=O)c1nccc(OC)c1O` [Compound 40], the pest or weed control at 100 ppm with Zymoseptoria tritici (24 h, HV activity at 100 ppm, 1 Day Protectant, read-out: SEPTTR 1DP disease control rating) was over 80%; with Zymoseptoria tritici (72 h, HV activity at 100 ppm, 3 Day Curative, read-out: SEPTTR 3DC disease control rating), over 80%; in the test with Puccinia triticina (Puccinia triticina, 24 h, HV activity at 100 ppm, 1 Day Protectant, read-out: PUCCRT 1DP disease control rating), over 80%. The “PUCCRT 3DC disease control rating” value in the test with Puccinia triticina (setting [1]) is given as “A (>80)”.
With `COc1cc(F)ccc1[C@@H](Sc1ccccc1)[C@H](C)OC(=O)[C@H](C)NC(=O)c1nccc(OC)c1O` [Compound 57], the “SEPTTR 1DP disease control rating” value in the test with Zymoseptoria tritici (setting [2]) is “B (≤80)”. Further, the “SEPTTR 3DC disease control rating” value with Zymoseptoria tritici (setting [1]) was “A (>80)”. Also, the “PUCCRT 1DP disease control rating” value in the test with Puccinia triticina (setting [2]) is on record as “A (>80)”. Further, in the test with Puccinia triticina (setting [1]), the “PUCCRT 3DC disease control rating” value is listed as “D (≤0)”.
`COc1cc(F)ccc1[C@@H](Sc1ccccc1)[C@H](C)OC(=O)[C@H](C)NC(=O)c1nccc(OC)c1OC(C)=O` [Compound 59]: the figures for the pest or weed control at 121.5 g/ha with Zymoseptoria tritici (setting [3]), in the test with Zymoseptoria tritici (setting [4]) and in the test with Puccinia triticina (setting [5]) were at most 80%, at most 80% and over 80%, respectively.
For the molecule `COc1ccnc(C(=O)N[C@@H](C)C(=O)O[C@@H](C)[C@@H](c2ccccc2)S(=O)(=O)c2ccc(C)cc2)c1OC(C)=O` [Compound 66], the pest or weed control at 25 ppm with Phakopsora pachyrhizi (setting [6]) and in the test with Phakopsora pachyrhizi (setting [7]) was at most 80% in each case. Further, the pest or weed control at 121.5 g/ha in the test on Zymoseptoria tritici (setting [3]) was over 80%; with Zymoseptoria tritici (setting [4]) it was at most 80%; with Puccinia triticina (setting [5]) it was at most 80%; in the test with Puccinia triticina (setting [8]), at most 80%.
In the case of `COc1ccnc(C(=O)N[C@@H](C)C(=O)O[C@@H](C)[C@@H](c2ccccc2)S(=O)(=O)c2ccc(C(F)(F)F)cn2)c1OC(C)=O` [Compound 71], the pest or weed control at 25 ppm in the test on Phakopsora pachyrhizi (setting [6]) and with Phakopsora pachyrhizi (setting [7]) was at most 80% in each case. Moreover, the pest or weed control at 121.5 g/ha with Zymoseptoria tritici (setting [3]) is at most 80%; with Zymoseptoria tritici (setting [4]), at most 80%; with Puccinia triticina (setting [5]), at most 0%; in the test with Puccinia triticina (setting [8]), at most 80%.
`COc1ccnc(C(=O)N[C@@H](C)C(=O)O[C@@H](C)[C@H](Sc2ccccc2)c2ccccc2)c1OC(=O)OC(=O)C(C)C` [Compound 79]: the pest or weed control at 25 ppm in the test with Phakopsora pachyrhizi (setting [6]) and in the test with Phakopsora pachyrhizi (setting [7]) was at most 80% in each case. Besides, the pest or weed control at 121.5 g/ha is over 80% in the test with Zymoseptoria tritici (setting [3]), over 80% in the test on Zymoseptoria tritici (setting [4]), over 80% with Puccinia triticina (setting [5]) and at most 80% in the test on Puccinia triticina (setting [8]).
With `COc1ccnc(C(=O)N[C@@H](C)C(=O)O[C@@H](C)[C@H](Sc2ccccc2)c2ccccc2)c1OC(=O)OC(C)=O` [Compound 80], the pest or weed control at 25 ppm in the test with Phakopsora pachyrhizi (setting [6]) and in the test with Phakopsora pachyrhizi (setting [7]) was at most 80% each time. Further, the pest or weed control at 121.5 g/ha with Zymoseptoria tritici (setting [3]) was at most 80%; with Zymoseptoria tritici (setting [4]), at most 80%; in the test on Puccinia triticina (setting [5]), over 80%; with Puccinia triticina (setting [8]), at most 80%.
Take `COc1ccnc(C(=O)N[C@@H](C)C(=O)O[C@@H](C)[C@H](Sc2ccc(F)cc2C)c2ccccc2)c1OC(C)=O` [Compound 83]: the “SEPTTR 3DC disease control rating” value with Zymoseptoria tritici (setting [9]) is on record as “D (≤0)”. For the same molecule, the pest or weed control at 121.5 g/ha in the test on Zymoseptoria tritici (setting [3]) was at most 80%; in the test with Puccinia triticina (setting [8]) it was at most 0%.
For the molecule `COc1cc(F)ccc1[C@@H](Sc1ccccc1)[C@H](C)OC(=O)[C@H](C)NC(=O)c1nccc(OC)c1OC(C)=O` [Compound 84], the “PUCCRT 3DC disease control rating” value with Puccinia triticina (setting [9]) was “B (≤80)”.
In the case of `COc1ccnc(C(=O)N[C@@H](C)C(=O)O[C@@H](C)[C@H](Sc2ccccc2)c2ccc(F)cc2)c1OC(C)=O` [Compound 85], the pest or weed control at 25 ppm was at most 80% with Phakopsora pachyrhizi (setting [6]) and at most 0% in the test with Phakopsora pachyrhizi (setting [7]). Also, the “SEPTTR 1DP disease control rating” value in the test with Zymoseptoria tritici (LV activity at 121.5 g/H, 1 Day Protectant) is recorded as “B (≤80)”. Further, the “SEPTTR 3DC disease control rating” value in the test with Zymoseptoria tritici (setting [9]) is “D (≤0)”. Moreover, the pest or weed control at 121.5 g/ha in the test with Puccinia triticina (setting [8]) was at most 0%.

Source of the values: patent publication US10214490B2, “Picolinamides as fungicides” (Dow AgroSciences LLC, priority 2016, dated 2019).
